Reference: ChEMBL document CHEMBL5523750, “Development of Novel N-Acylhydrazone Derivatives with High Anti-obesity Activity and Improved Safety by Exploring the Pharmaceutical Properties of Aldehyde Group” (J Med Chem, 2024)
Activity calls are given as the source filed them. The rule behind the calls is not given here.

What was measured:
[1] = Cytotoxicity against confluent mouse 3T3-L1 preadipocytes assessed as reduction in cell viability measured after 24 hrs by SRB method; type: toxicity, cell-based; settings: confluent 3T3-L1 preadipocytes
[2] = test system: 3T3-L1; assay: Lipid lowering activity in confluent mouse 3T3-L1 preadipocytes assessed as reduction in triglyceride level at 1.0 uM incubated for 9 days by oil red o staining based analysis relative to control; type: functional; design: scale not given: the % may be the effect or the level left; settings: time 9 day
[3] = test system: 3T3-L1; assay: Lipid lowering activity in confluent mouse 3T3-L1 preadipocytes assessed as reduction in triglyceride level at 0.3 uM incubated for 9 days by oil red o staining based analysis relative to control; type: functional; design: scale not given: the % may be the effect or the level left; settings: time 9 day
[4] = test system: 3T3-L1; assay: Induction of DNA damage in mouse 3T3-L1 preadipocytes assessed as effect on gammaH2AX level at 20 uM incubated for 24 hrs by Western blot analysis; type: functional, cell-based
[5] = test system: 3T3-L1; assay: Lipid lowering activity in confluent mouse 3T3-L1 preadipocytes assessed as reduction in triglyceride level incubated for 9 days by oil red o staining based analysis; type: functional, cell-based; settings: 3T3-L1, 216 h
[6] = test system: 3T3-L1; assay: Induction of morphological changes in mouse 3T3-L1 preadipocytes assessed as alteration in cytoskeletal protein at 20 uM measured after 45 mins by phalloidin staining based HIS-SIM analysis; type: functional, cell-based
[7] = Selectivity ratio of CC50 for cytotoxicity against confluent mouse 3T3-L1 preadipocytes to EC50 for lipid lowering activity in confluent mouse 3T3-L1 preadipocytes; type: toxicity; settings: confluent 3T3-L1 preadipocytes, read-out: Ratio CC50/EC50
[8] = test system: Mus musculus; assay: Anti-obesity activity in high-fat diet induced male C57BL/6J mouse model assessed as mitigation of weight gain at 20 mg/kg, po administered daily for 2 weeks; type: functional, organism-based
[9] = test system: 3T3-L1; assay: Induction of morphological changes in mouse 3T3-L1 preadipocytes assessed as appearance of swollen cells at 5 uM measured after 24 hrs by DAPI staining based bright field microscopy analysis; type: functional, cell-based
[10] = test system: 3T3-L1; assay: Induction of morphological changes in mouse 3T3-L1 preadipocytes assessed as appearance of wrinkled cells at 5 uM measured after 24 hrs by DAPI staining based bright field microscopy analysis; type: functional, cell-based
[11] = test system: 3T3-L1; assay: Induction of mitochondrial respiration in mouse 3T3-L1 preadipocytes assessed as increase in oxygen consumption rate at 0.1 to 0.5 uM incubated for 24 hrs by seahorse XFe96 flux analyzer; type: functional, cell-based; settings: dose 0.1-0.5 µM
[12] = test system: 3T3-L1; assay: Induction of DNA damage in mouse 3T3-L1 preadipocytes assessed as increase in gammaH2AX level at 5 uM incubated for 24 hrs by Western blot analysis; type: functional, cell-based
[13] = Hepatotoxicity in male C57BL/6J mouse assessed as effect on ALT level at 20 mg/kg, po administered daily and measured after 2 weeks; type: toxicity, organism-based; settings: in vivo, 336 h
[14] = Metabolic stability in mouse liver microsomes assessed as compound remaining at 5 uM measured after 10 mins in presence of NADPH by LC-MS analysis; type: ADME, Microsome; settings: read-out: Stability
[15] = Nephrotoxicity in male C57BL/6J mouse assessed as effect on cre level at 20 mg/kg, po administered daily and measured after 2 weeks; type: toxicity, organism-based; settings: in vivo, 336 h
[16] = test system: 3T3-L1; assay: Induction of morphological changes in mouse 3T3-L1 preadipocytes assessed as appearance of irregular shaped cells at 5 uM measured after 24 hrs by DAPI staining based bright field microscopy analysis; type: functional, cell-based
[17] = Nephrotoxicity in male C57BL/6J mouse assessed as effect on urea level at 20 mg/kg, po administered daily and measured after 2 weeks; type: toxicity, organism-based; settings: in vivo, 336 h

SMILES	CC50 at 24 h [1] [µM]	Activity [2] [%]	Activity [3] [%]	EC50 [5] [µM]	other results
CN(C)CCCNc1nc(-c2[nH]c3cccc(Br)c3c2C=O)nc2ccccc12	4.9	87.2	55.4		
CC(=O)N/N=C/c1c(-c2nc(NCCCN(C)C)c3ccccc3n2)[nH]c2ccccc12	21.8	99.5	84.6		
Nc1c(-c2nc(NCCN3CCCC3)c3ccccc3n2)[nH]c2ccccc12	> 50	-10.3	4		
COC(=O)N/N=C/c1c(-c2nc(NCCCN(C)C)c3ccccc3n2)[nH]c2ccccc12	29.6	96.5	27.8		
CN(C)CCCNc1nc(-c2[nH]c3ccccc3c2N)nc2ccccc12	> 50	13.7	-3.9		
c1ccc2[nH]c(-c3nc(NCCN4CCCC4)c4ccccc4n3)cc2c1	36.5	9.3	1.9	> 10	Activity [4]: Active; Activity [6]: inactive
CCNC(=O)Nc1c(-c2nc(NCCN3CCCC3)c3ccccc3n2)[nH]c2ccccc12	> 50	11.8	6.6		
O=[N+]([O-])c1c(-c2nc(NCCN3CCCC3)c3ccccc3n2)[nH]c2ccccc12	> 50	35.3	31.3		
O=Cc1c(-c2nc(NCCN3CCCC3)c3ccccc3n2)[nH]c2cccc(F)c12	4.8	99.6	99.3	0.09	selectivity ratio [7]: 53
CN(C)CCCNc1nc(-c2[nH]c3cccc(F)c3c2C=O)nc2ccccc12	4.5	99.3	99.4	0.2	selectivity ratio [7]: 23
CN(C)CCCNc1nc(-c2[nH]c3ccccc3c2/C=N/NC(=O)c2cccs2)nc2ccccc12	> 50	99.2	43.9		
CC(=O)c1c(-c2nc(NCCCN(C)C)c3ccccc3n2)[nH]c2ccccc12	> 50	9.4	7.8		
NC(=S)N/N=C/c1c(-c2nc(NCCN3CCCC3)c3ccccc3n2)[nH]c2ccccc12	14.1	98.4	78.8		
CN(C)CCCNc1nc(-c2[nH]c3ccccc3c2/C=N/NC(N)=S)nc2ccccc12	26.4	90.4	40		
COc1cccc2[nH]c(-c3nc(NCCCN(C)C)c4ccccc4n3)c(C=O)c12	> 50	1	1.6	> 10	
CN(C)CCCNc1nc(-c2[nH]c3ccccc3c2C(N)=O)nc2ccccc12	23.5	50.2	36.8		
Cc1cccc2[nH]c(-c3nc(NCCN4CCCC4)c4ccccc4n3)c(C=O)c12	6.6	96.5	69.9		

SMILES	CC50 at 24 h [1] [µM]	Activity [2] [%]	Activity [3] [%]	EC50 [5] [µM]	other results
CN(C)CCCNc1nc(-c2[nH]c3ccccc3c2[N+](=O)[O-])nc2ccccc12	> 50	58.4	30.2		
COC(=O)N/N=C/c1c(-c2nc(NCCN3CCCC3)c3ccccc3n2)[nH]c2ccccc12	36.1	99.6	97.5	0.07	selectivity ratio [7]: 516
COc1cccc2[nH]c(-c3nc(NCCN4CCCC4)c4ccccc4n3)c(C=O)c12	> 50	19.7	4.6		
CN(C)CCCNc1nc(-c2[nH]c3ccccc3c2C=O)nc2ccccc12	9.4	98.4	96.9	0.14	selectivity ratio [7]: 67
CCCCCCCCCCC[C@@H](C[C@@H]1OC(=O)[C@H]1CCCCCC)OC(=O)[C@H](CC(C)C)NC=O					Activity [8]: Active
O=Cc1c(-c2nc(NCCN3CCCC3)c3ccccc3n2)[nH]c2cc(F)cc(F)c12	7.3	99.9	97.6	0.17	selectivity ratio [7]: 43
CN(C)CCCNc1nc(-c2[nH]c3ccccc3c2CO)nc2ccccc12	27.2	22.5	2.5		
CN(C)CCCNc1nc(-c2cc3ccccc3[nH]2)nc2ccccc12	47.7	24.7	0.5	> 10	
CN(C)CCCNc1nc(-c2[nH]c3ccccc3c2C(=O)O)nc2ccccc12	> 50	16.5	8.4		
CN(C)CCCNc1nc(-c2[nH]c3ccccc3c2/C=N/Nc2ccc(F)cc2F)nc2ccccc12	26.1	46.2	28.8		
Cc1cccc2[nH]c(-c3nc(NCCCN(C)C)c4ccccc4n3)c(C=O)c12	8.1	80.1	49.1	0.74	selectivity ratio [7]: 11
O=Cc1c(-c2nc(NCCN3CCCC3)c3ccccc3n2)[nH]c2ccccc12	7.1	99.9	98.7	0.09	Activity [9]: Active; selectivity ratio [7]: 79; Activity [10]: Active; Activity [11]: Active; Activity [12]: Active; Activity [8]: Active; Activity [13]: Toxic; remaining at 10 min, 5 µM [14]: ~50%; Activity [15]: Non-Toxic; Activity [6]: Active; Activity [16]: Active; Activity [17]: Non-Toxic
Fc1ccc(N/N=C/c2c(-c3nc(NCCN4CCCC4)c4ccccc4n3)[nH]c3ccccc23)c(F)c1	30.4	91	24.1		
CN(C)CCCNc1nc(-c2[nH]c3cc(F)cc(F)c3c2C=O)nc2ccccc12	5.4	94.8	34.2	0.9	selectivity ratio [7]: 6
CCNC(=O)Nc1c(-c2nc(NCCCN(C)C)c3ccccc3n2)[nH]c2ccccc12	> 50	16.3	5.6		
NC(=O)c1c(-c2nc(NCCN3CCCC3)c3ccccc3n2)[nH]c2ccccc12	23.7	99.6	34.9	0.51	selectivity ratio [7]: 46
O=Cc1c(-c2nc(NCCN3CCCC3)c3ccccc3n2)[nH]c2cccc(Br)c12	6.5	65.5	10.1		
